Reference: US6812250B2, “Carboxamide-substituted phenylurea derivatives, process for their preparation and their use as medicaments” (Aventis Pharma Deutschland GmbH, priority 2001, dated 2004)

Target: T1, human glycogen phosphorylase a (Homo sapiens, UniProt P06737)
T1 sequence (P06737 1-847): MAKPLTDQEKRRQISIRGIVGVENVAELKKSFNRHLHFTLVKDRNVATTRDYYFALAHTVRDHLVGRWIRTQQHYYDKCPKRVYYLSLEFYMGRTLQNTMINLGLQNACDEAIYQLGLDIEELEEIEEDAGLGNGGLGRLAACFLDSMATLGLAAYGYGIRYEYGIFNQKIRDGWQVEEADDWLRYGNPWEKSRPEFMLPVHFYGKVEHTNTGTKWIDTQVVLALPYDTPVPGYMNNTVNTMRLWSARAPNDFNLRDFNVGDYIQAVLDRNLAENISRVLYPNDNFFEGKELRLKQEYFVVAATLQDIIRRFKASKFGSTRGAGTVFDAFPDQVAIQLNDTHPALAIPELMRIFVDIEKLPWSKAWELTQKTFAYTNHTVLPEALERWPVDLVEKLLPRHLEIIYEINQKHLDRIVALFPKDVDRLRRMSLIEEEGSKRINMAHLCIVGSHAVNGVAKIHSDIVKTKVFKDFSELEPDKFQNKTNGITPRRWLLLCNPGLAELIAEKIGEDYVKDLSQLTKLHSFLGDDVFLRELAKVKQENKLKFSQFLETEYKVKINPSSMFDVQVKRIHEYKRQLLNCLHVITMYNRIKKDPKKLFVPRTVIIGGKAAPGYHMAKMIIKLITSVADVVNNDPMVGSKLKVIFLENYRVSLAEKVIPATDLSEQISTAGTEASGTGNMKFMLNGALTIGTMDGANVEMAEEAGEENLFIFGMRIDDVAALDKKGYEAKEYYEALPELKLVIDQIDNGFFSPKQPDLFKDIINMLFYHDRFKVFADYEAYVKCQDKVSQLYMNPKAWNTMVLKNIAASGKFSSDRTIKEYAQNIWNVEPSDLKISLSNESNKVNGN
Experiment: Glycogen phosphorylase a activity assay
Type: biochemical
Conditions: 10 μM test substance; GPa activity measured in the reverse direction (glycogen synthesis from glucose 1-phosphate, liberated inorganic phosphate, absorption at 820 nm); in vitro
Protocol: Glycogen Phosphorylase a Activity Assay
The effect of compounds on the activity of the active form of glycogen phosphorylase (GPa) was measured in the reverse direction by following the synthesis of glycogen from glucose 1-phosphate by determining the liberation of inorganic phosphate. All the reactions were carried out as duplicate determinations in microtiter plates with 96 wells (Half Area Plates, Costar No 3696), measuring the change in absorption owing to the formation of the reaction product at the wavelength specified hereinafter in a Multiskan Ascent Elisa Reader (Lab Systems, Finland). […] The baseline glycogen phosphorylase a activity in the absence of test substance was determined by adding 10 μl of buffer solution T (0.1% DMSO). The mixture was incubated at room temperature for 40 minutes, and the liberated inorganic phosphate was measured by the general method of Drueckes et al. (Drueckes P, Schinzel R, Palm D, Anal Biochem 1995 Sep. 1;230(1):173-177) with the following modifications: 50 μl of a stop solution of 7.3 mM ammonium molybdate, 10.9 mM zinc acetate, 3.6% ascorbic acid, 0.9% SDS are added to 50 μl of the enzyme mixture. After incubation at 45° C. for 60 minutes, the absorption at 820 nm was measured. […]

In the case of `CCOC(=O)N1CCC(NC(=O)c2ccc(Cl)c(NC(=O)NC(=O)c3ccccc3Cl)c2)CC1` [Example 1, Ethyl 4-{4-chloro-3-[3-(2-chlorobenzoyl)ureido]benzoylamino}piperidine-1-carboxylate], the inhibition at 10 µM is reported as 87%.
